Data from ChEMBL document CHEMBL5385862, “Acyloxymethyl and alkoxycarbonyloxymethyl prodrugs of a fosmidomycin surrogate as antimalarial and antibacterial agents” (Eur J Med Chem, 2023).
pIC50: −log10 of the molar value.

Tests used:
Acinetobacter baumannii = assay: Antibacterial activity against Acinetobacter baumannii assessed as inhibition of bacterial growth; type: functional, organism-based
[1] = Selectivity index ratio of CC50 for cytotoxicity against human MRC5 cells to IC50 for antibacterial activity against Acinetobacter baumannii assessed as inhibition of bacterial growth; type: toxicity, cell-based; conditions: read-out: Ratio CC50/IC50
[2] = system: Mycobacterium tuberculosis; assay: Antitubercular activity against Mycobacterium tuberculosis H37Ra assessed as inhibition of bacterial growth; type: functional, organism-based
Plasmodium falciparum = assay: Antiplasmodial activity against asexual blood stage Plasmodium falciparum K1 assessed as inhibition of parasitic growth; type: functional, organism-based
[3] = Cytotoxicity against human MRC5 cells assessed as reduction in cell viability; type: toxicity, cell-based
[4] = Selectivity index ratio of CC50 for cytotoxicity against human MRC5 cells to IC50 for antiplasmodial activity against asexual blood stage Plasmodium falciparum K1 assessed as inhibition of parasitic growth; type: toxicity, cell-based; conditions: read-out: Ratio CC50/IC50

In the case of `CN(O)C(=O)CCCP(=O)(OCOC(=O)c1ccc2ccccc2c1)OCOC(=O)c1ccc2ccccc2c1`, the pIC50 (Acinetobacter baumannii) was 4.29, the selectivity ratio [1] was 0.53 and the pIC50 [2] was under 4.19. It also gave a pIC50 (Plasmodium falciparum) of 6.60, a CC50 [3] of 27.2 µM and a selectivity ratio [4] of 109.

In the case of `CN(O)C(=O)CCCP(=O)(OCOC(=O)c1ccc(Cl)cc1)OCOC(=O)c1ccc(Cl)cc1`, the pIC50 (Acinetobacter baumannii) was 4.41, the selectivity ratio [1] was 0.8 and the pIC50 [2] was under 4.19. For the same molecule, the pIC50 (Plasmodium falciparum) was 6.85, the CC50 [3] was 31.2 µM and the selectivity ratio [4] was 223.

With `CN(O)C(=O)CCCP(=O)(OCOC(=O)OCCCc1ccccc1)OCOC(=O)OCCCc1ccccc1` the pIC50 (Acinetobacter baumannii) was 5.59, the selectivity ratio [1] was over 25 and the pIC50 [2] was under 4.19. For the same molecule, the pIC50 (Plasmodium falciparum) was 7.05, the CC50 [3] was over 64 µM and the selectivity ratio [4] was over 711.

In the case of `CN(O)C(=O)CCCP(=O)(OCOC(=O)CCCCc1ccccc1)OCOC(=O)CCCCc1ccccc1`, the pIC50 (Acinetobacter baumannii) was 5.62, the selectivity ratio [1] was over 27 and the pIC50 [2] was under 4.19. The pIC50 (Plasmodium falciparum) was 7.30, the CC50 [3] was over 64 µM and the selectivity ratio [4] was over 1280.

With `CCCCCCCC(=O)OCOP(=O)(OCOC(=O)CCCCCCC)C(CCC(=O)N(C)O)c1ccc(Cl)c(Cl)c1` (stereo not drawn) the pIC50 (Acinetobacter baumannii) was 4.96, the selectivity ratio [1] was 2 and the pIC50 [2] was under 4.19. For the same molecule, the pIC50 (Plasmodium falciparum) was 6.36, the CC50 [3] was 22.5 µM and the selectivity ratio [4] was 51.

For `CN(O)C(=O)CCC(c1ccc(Cl)c(Cl)c1)P(=O)(OCOC(=O)/C=C/c1ccccc1)OCOC(=O)/C=C/c1ccccc1` (stereo not drawn), the pIC50 (Acinetobacter baumannii) was under 4.01, the pIC50 [2] was under 4.19 and the pIC50 (Plasmodium falciparum) was 5.35. It also gave a CC50 [3] of 24.6 µM and a selectivity ratio [4] of 5.6.

In the case of `O=CN(O)CCCP(=O)(O)O` [FOSMIDOMYCIN SODIUM], the pIC50 [2] was under 4.19 and the CC50 [3] was over 64 µM.

With `Cc1ccc(C(=O)OCOP(=O)(CCCC(=O)N(C)O)OCOC(=O)c2ccc(C)cc2)cc1` the pIC50 (Acinetobacter baumannii) was 4.96, the selectivity ratio [1] was over 5.8 and the pIC50 [2] was under 4.19. It also gave a pIC50 (Plasmodium falciparum) of 6.24, a CC50 [3] of over 64 µM and a selectivity ratio [4] of over 112.

Work on `CCON(C)C(=O)CCCP(=O)(OCOC(=O)OCc1coc(-c2ccccc2O)n1)OCOC(=O)OCc1coc(-c2ccccc2O)n1` yielded a pIC50 (Acinetobacter baumannii) of 5.15, a selectivity ratio [1] of 3.6 and a pIC50 [2] of under 4.19. It also gave a pIC50 (Plasmodium falciparum) of 6.38, a CC50 [3] of 25.5 µM and a selectivity ratio [4] of 61.

For `CC(C)OC(=O)OCOP(=O)(OCOC(=O)OC(C)C)C(CCC(=O)N(C)O)c1ccc(Cl)c(Cl)c1` (stereo not drawn), the pIC50 (Acinetobacter baumannii) was under 3.95, the pIC50 [2] was under 4.19 and the pIC50 (Plasmodium falciparum) was 6.64. It also gave a CC50 [3] of 7.58 µM and a selectivity ratio [4] of 33.

`CC(C)OC(=O)OCOP(=O)(CCCC(=O)N(C)O)OCOC(=O)OC(C)C` showed a pIC50 (Acinetobacter baumannii) of under 3.83, a pIC50 [2] of under 4.19 and a pIC50 (Plasmodium falciparum) of 6.96. The CC50 [3] was over 50.7 µM and the selectivity ratio [4] was over 461.

`CCCCCCCC(=O)OCOP(=O)(CCCC(=O)N(C)O)OCOC(=O)CCCCCCC` gave a pIC50 (Acinetobacter baumannii) of 6.41, a selectivity ratio [1] of 103 and a pIC50 [2] of under 4.19. For the same molecule, the pIC50 (Plasmodium falciparum) was 7.52, the CC50 [3] was 40.3 µM and the selectivity ratio [4] was 1340.

With `CN(O)C(=O)CCCP(=O)(OCOC(=O)C(C)(C)C)OCOC(=O)C(C)(C)C` the pIC50 (Acinetobacter baumannii) was 4.92, the selectivity ratio [1] was over 4.3 and the pIC50 [2] was under 4.25. The pIC50 (Plasmodium falciparum) was 6.07, the CC50 [3] was over 51 µM and the selectivity ratio [4] was over 59.

`CCON(C)C(=O)CCCP(=O)(OCOC(=O)c1ccccc1O)OCOC(=O)c1ccccc1O` gave a pIC50 (Acinetobacter baumannii) of under 3.89, a pIC50 [2] of under 4.19 and a pIC50 (Plasmodium falciparum) of 6.55. For the same molecule, the CC50 [3] was over 64 µM and the selectivity ratio [4] was over 229.

Work on `COc1ccc(C(=O)OCOP(=O)(CCCC(=O)N(C)O)OCOC(=O)c2ccc(OC)cc2)cc1` yielded a pIC50 (Acinetobacter baumannii) of 5.00, a selectivity ratio [1] of 3.3 and a pIC50 [2] of under 4.19. The pIC50 (Plasmodium falciparum) was 6.74, the CC50 [3] was 33.1 µM and the selectivity ratio [4] was 184.

In the case of `CN(O)C(=O)CCC(c1ccc(Cl)c(Cl)c1)P(=O)(OCOC(=O)C(C)(C)C)OCOC(=O)C(C)(C)C` (stereo not drawn), the pIC50 (Acinetobacter baumannii) was under 3.95, the pIC50 [2] was under 4.19 and the pIC50 (Plasmodium falciparum) was 6.36. The CC50 [3] was 6.81 µM and the selectivity ratio [4] was 15.

Molecule `CN(O)C(=O)CCCP(=O)(OCOC(=O)c1cccc(Cl)c1)OCOC(=O)c1cccc(Cl)c1` has a pIC50 (Acinetobacter baumannii) of 4.27, a selectivity ratio [1] of over 1.2 and a pIC50 [2] of under 4.19. For the same molecule, the pIC50 (Plasmodium falciparum) was 6.85, the CC50 [3] was over 64 µM and the selectivity ratio [4] was over 457.

In the case of `CCON(C)C(=O)CCCP(=O)(OCOC(=O)c1coc(-c2ccccc2O)n1)OCOC(=O)c1coc(-c2ccccc2O)n1`, the pIC50 (Acinetobacter baumannii) was 4.80, the selectivity ratio [1] was 1.6 and the pIC50 [2] was under 4.19. It also gave a pIC50 (Plasmodium falciparum) of 6.27, a CC50 [3] of 26 µM and a selectivity ratio [4] of 48.

`CCCCCCCCOC(=O)OCOP(=O)(CCCC(=O)N(C)O)OCOC(=O)OCCCCCCCC` showed a pIC50 (Acinetobacter baumannii) of 6.15, a selectivity ratio [1] of 54 and a pIC50 [2] of under 4.19. It also gave a pIC50 (Plasmodium falciparum) of 7.15, a CC50 [3] of 37.7 µM and a selectivity ratio [4] of 539.

`CCON(C)C(=O)CCCP(=O)(OCOC(=O)c1cccc(O)c1O)OCOC(=O)c1cccc(O)c1O` gave a pIC50 (Acinetobacter baumannii) of under 3.92, a pIC50 [2] of under 4.19 and a pIC50 (Plasmodium falciparum) of 5.98. The CC50 [3] was over 64 µM and the selectivity ratio [4] was over 61.

In the case of `CN(O)C(=O)CCCP(=O)(OCOC(=O)CCc1ccccc1)OCOC(=O)CCc1ccccc1`, the pIC50 (Acinetobacter baumannii) was 4.68, the selectivity ratio [1] was over 3 and the pIC50 [2] was under 4.19. It also gave a pIC50 (Plasmodium falciparum) of 7.05, a CC50 [3] of over 64 µM and a selectivity ratio [4] of over 711.

Work on `CN(O)C(=O)CCCP(=O)(OCOC(=O)c1ccccc1)OCOC(=O)c1ccccc1` yielded a pIC50 (Acinetobacter baumannii) of 5.09, a selectivity ratio [1] of 3.4 and a pIC50 [2] of under 4.19. The pIC50 (Plasmodium falciparum) was 6.92, the CC50 [3] was 28.1 µM and the selectivity ratio [4] was 234.

In the case of `CN(O)C(=O)CCCP(=O)(OCOC(=O)/C=C/c1ccccc1)OCOC(=O)/C=C/c1ccccc1`, the pIC50 (Acinetobacter baumannii) was 5.25, the selectivity ratio [1] was 5.4 and the pIC50 [2] was under 4.19. It also gave a pIC50 (Plasmodium falciparum) of 7.30, a CC50 [3] of 30.3 µM and a selectivity ratio [4] of 606.
